Legend:
[1] = system: rat skeletal muscle-derived muscle satellite cells; assay: Morphological changes of muscle satellite cells to myofibroblasts under TGF β fibrosis induction (Masson's Trichrome staining); assay type: cell-based; conditions: TGF β 1 ng/mL
Experimental: Gastrocnemius, soleus, plantaris muscle, tibialis anterior, extensor digitorum longus, and quadriceps were extracted from male Fischer 344 rats of 9 to 15 weeks old under anesthesia, and minced in phosphate buffered saline (PBS) (Life Technologies Corporation) on ice. The minced muscle tissue was enzymatically degraded by Protease (Sigma-Aldrich) at 37° C., and then centrifuged repeatedly, whereby the muscle satellite cells were isolated. The muscle satellite cells were suspended in Dulbecco's Modified Eagle Medium (DMEM) containing 10% fetal equine serum, and cultured for 24 hours. After culturing, centrifugation was performed again, and the deposited muscle satellite cells were seeded onto an 8-well slide glass (Thermo Fisher Scientific) to a density of 5×10^4 to 7×10^4 cells/mL in F-10 medium (Gibco) containing 20% bovine serum. After seeding, the muscle satellite cells were cultured for 72 hours or 120 hours. The muscle satellite cells for tissue staining were cultured for 72 hours, and muscle satellite cells for genetic analysis were cultured for 120 hours to provide enough cells. In the case of the muscle satellite cells to be cultured for 120 hours, the F-10 medium containing 20% bovine serum was replaced 72 hours after seeding. After the culturing for 72 hours or 120 hours, the muscle satellite cells were cultured in a differentiation-inducing medium for 24 hours. The differentiation-inducing medium was a medium in which a TGF β (TGF-β) signal inhibitor, quercetin, or solvent was added in an amount shown in Table 1 to Dulbecco's Modified Eagle Medium (DMEM) containing 2% fetal equine serum. TGF β (Sigma-Aldrich) was used for fibrosis induction. The compound was added to the differentiation-inducing medium using HCl as solvent to a final concentration of 1 ng/mL. TGF β was added when a TGF β signal inhibitor or quercetin was added. The TGF β signal inhibitor was SB525334 (6-[2-tert-butyl-5-(6-methyl-pyridin-2-yl)-1H-imidazol-4-yl]-quinoxaline available from Wako Pure Chemical Industries, Ltd.). […]

Colla1 gene = assay: Fibrosis marker gene expression analysis (quantitative PCR), Colla1 gene; assay type: cell-based, rat; conditions: TGF β 1 ng/mL, 24 hours, FIG. 2(b)
Experimental: (§1) Gastrocnemius, soleus, plantaris muscle, tibialis anterior, extensor digitorum longus, and quadriceps were extracted from male Fischer 344 rats of 9 to 15 weeks old under anesthesia, and minced in phosphate buffered saline (PBS) (Life Technologies Corporation) on ice. The minced muscle tissue was enzymatically degraded by Protease (Sigma-Aldrich) at 37° C., and then centrifuged repeatedly, whereby the muscle satellite cells were isolated. The muscle satellite cells were suspended in Dulbecco's Modified Eagle Medium (DMEM) containing 10% fetal equine serum, and cultured for 24 hours. After culturing, centrifugation was performed again, and the deposited muscle satellite cells were seeded onto an 8-well slide glass (Thermo Fisher Scientific) to a density of 5×10^4 to 7×10^4 cells/mL in F-10 medium (Gibco) containing 20% bovine serum. After seeding, the muscle satellite cells were cultured for 72 hours or 120 hours. […] The cDNAs obtained by reverse transcription reaction was subjected to quantitative PCR in Step One Plus Real Time PCR System using TaqMan Fast Universal PCR Mastermix (Life Technologies Corporation). The expression levels of Colla1 gene and Acta2 gene as a myofibroblast marker were measured. For quantitative PCR, the cells were first maintained at 95° C. for 20 seconds, and then subjected to 40 cycles of reaction at 95° C. for 1 second and 60° C. for 20 seconds. […]

Acta2 gene = assay: Fibrosis marker gene expression analysis (quantitative PCR), Acta2 gene; assay type: cell-based, rat; conditions: TGF β 1 ng/mL, 24 hours, Dunnett's test vs. TGF β(+), FIG. 2(a)
Experimental: as §1

Structure (SMILES)	TGF β-induced morphological changes of muscle satellite cells to myofibroblasts ([1]; SB525334 1 μM, 24 hours in differentiation-inducing medium, FIG. 1(c))	expression of Colla1 gene (Colla1 gene; SB525334 1 μM, Dunnett's test vs. TGF β(+))	expression of Acta2 gene (Acta2 gene; SB525334 1 μM)	morphological changes of muscle satellite cells to myofibroblast-like cells ([1]; quercetin 50 μM, 24 hours, vs. TGF β-added group, FIG. 1(d))	morphological changes of muscle satellite cells to myofibroblasts ([1]; quercetin 100 μM, 24 hours, vs. 50-μM quercetin-added group, FIG. 1(e))	expression of Colla1 gene (Colla1 gene; quercetin 50 μM and 100 μM)	expression of Acta2 gene (Acta2 gene; quercetin 100 μM)
Cc1cccc(-c2[nH]c(C(C)(C)C)nc2-c2ccc3nccnc3c2)n1 [SB525334, 6-[2-tert-butyl-5-(6-methyl-pyridin-2-yl)-1H-imidazol-4-yl]-quinoxaline, reference compound]	clearly inhibited	significantly inhibited	significantly inhibited	–	–	–	–
O=c1c(O)c(-c2ccc(O)c(O)c2)oc2cc(O)cc(O)c12 [quercetin]	–	–	–	more inhibited	stronger effect of inhibiting morphological changes	inhibited in a concentration-dependent manner	significantly inhibited

Source: patent US20190388387A1, “COMPOSITION FOR INHIBITING MYOFIBROSIS” (SUNTORY HOLDINGS LIMITED, priority 2017, published 2019)
